# According to publication PMC3914206:
# Experiments:
# panel of 442 kinases [1] = target: T1, panel of 442 kinases (Homo sapiens, UniProt Q13233); assay type: binding; details: Compound Concentration 10 µM
# T1 construct: purchased KINOMEscan
# Description: (§1) We assessed the selectivity of members of this scaffold using the KINOMEscan methodology across a near comprehensive panel of 442 kinases [[18,27]].
# panel of 442 kinases [2] = target: T2, panel of 442 kinases (Homo sapiens, UniProt Q14680); assay type: binding; details: Compound Concentration 10 µM
# T2 construct: purchased KINOMEscan
# T2 sequence (Q14680 whole entry): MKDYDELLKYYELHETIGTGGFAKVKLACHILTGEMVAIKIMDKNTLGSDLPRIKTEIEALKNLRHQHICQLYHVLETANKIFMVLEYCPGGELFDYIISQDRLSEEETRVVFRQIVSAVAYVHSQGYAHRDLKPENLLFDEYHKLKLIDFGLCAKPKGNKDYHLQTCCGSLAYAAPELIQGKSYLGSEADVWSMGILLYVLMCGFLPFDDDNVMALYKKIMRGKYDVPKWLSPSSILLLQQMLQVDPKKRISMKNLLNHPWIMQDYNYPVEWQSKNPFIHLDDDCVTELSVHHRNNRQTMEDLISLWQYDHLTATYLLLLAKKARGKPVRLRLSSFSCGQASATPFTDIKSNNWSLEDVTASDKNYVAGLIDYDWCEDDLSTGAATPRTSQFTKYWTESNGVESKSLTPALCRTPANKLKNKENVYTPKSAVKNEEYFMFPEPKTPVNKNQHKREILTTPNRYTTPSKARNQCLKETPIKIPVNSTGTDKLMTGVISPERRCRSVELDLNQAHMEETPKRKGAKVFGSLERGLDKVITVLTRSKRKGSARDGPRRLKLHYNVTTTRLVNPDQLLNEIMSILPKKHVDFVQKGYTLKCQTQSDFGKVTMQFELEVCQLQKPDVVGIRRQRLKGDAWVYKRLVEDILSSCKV
# Description: as §1
# T1 sequence (Q13233 whole entry): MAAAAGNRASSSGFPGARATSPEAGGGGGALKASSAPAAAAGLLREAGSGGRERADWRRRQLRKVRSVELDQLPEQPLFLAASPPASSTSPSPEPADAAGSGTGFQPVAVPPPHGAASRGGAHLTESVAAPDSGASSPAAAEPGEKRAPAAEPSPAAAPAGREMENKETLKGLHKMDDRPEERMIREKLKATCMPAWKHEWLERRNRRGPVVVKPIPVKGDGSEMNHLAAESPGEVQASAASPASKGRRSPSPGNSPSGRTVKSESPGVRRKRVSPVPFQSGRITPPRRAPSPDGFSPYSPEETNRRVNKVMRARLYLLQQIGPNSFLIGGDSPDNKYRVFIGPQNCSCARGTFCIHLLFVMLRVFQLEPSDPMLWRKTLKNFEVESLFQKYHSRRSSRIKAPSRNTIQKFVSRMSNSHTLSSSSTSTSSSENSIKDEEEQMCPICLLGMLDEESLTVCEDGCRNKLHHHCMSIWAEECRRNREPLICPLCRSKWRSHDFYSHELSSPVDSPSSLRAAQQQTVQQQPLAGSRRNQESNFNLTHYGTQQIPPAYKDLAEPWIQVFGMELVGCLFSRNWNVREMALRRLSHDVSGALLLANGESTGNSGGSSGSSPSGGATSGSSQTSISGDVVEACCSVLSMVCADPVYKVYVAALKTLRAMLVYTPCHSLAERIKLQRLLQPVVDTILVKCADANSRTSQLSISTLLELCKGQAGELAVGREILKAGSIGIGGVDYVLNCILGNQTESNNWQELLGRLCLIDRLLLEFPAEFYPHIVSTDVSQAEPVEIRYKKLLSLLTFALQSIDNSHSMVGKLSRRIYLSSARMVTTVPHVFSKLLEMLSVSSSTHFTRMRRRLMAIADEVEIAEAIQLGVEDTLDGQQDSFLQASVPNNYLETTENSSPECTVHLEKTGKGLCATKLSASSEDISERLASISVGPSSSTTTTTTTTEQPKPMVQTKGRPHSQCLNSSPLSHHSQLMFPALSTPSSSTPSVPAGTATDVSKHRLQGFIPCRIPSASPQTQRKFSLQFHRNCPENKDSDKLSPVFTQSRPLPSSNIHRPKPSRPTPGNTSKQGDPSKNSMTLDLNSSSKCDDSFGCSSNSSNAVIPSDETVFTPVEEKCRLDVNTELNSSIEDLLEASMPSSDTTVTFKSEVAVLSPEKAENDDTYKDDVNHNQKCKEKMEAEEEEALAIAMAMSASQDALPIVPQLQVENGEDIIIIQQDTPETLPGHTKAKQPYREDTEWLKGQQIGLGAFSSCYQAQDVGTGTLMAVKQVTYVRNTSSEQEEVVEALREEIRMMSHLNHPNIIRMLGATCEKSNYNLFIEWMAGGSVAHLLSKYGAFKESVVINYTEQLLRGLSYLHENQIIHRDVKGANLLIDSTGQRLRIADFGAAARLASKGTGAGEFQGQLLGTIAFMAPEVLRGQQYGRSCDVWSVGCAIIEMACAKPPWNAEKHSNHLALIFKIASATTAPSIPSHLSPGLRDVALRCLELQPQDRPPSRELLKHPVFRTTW
SMILES,KINOMEscan: MAP3K1 (panel of 442 kinases [1]),KINOMEscan: MELK (panel of 442 kinases [2])
CCOc1cc(C(=O)N2CCC(N3CCN(C)CC3)CC2)ccc1Nc1ncc2c(n1)N(C1CCCC1)c1ccccc1C(=O)N2C [Compound 26],93,100
"COc1cc(C(=O)N2CCC(N3CCN(C)CC3)CC2)ccc1Nc1ncc2c(n1)N(C1CCCC1)c1ccccc1C(=O)N2C [Compound 25, 11-cyclopentyl-2-((2-methoxy-4-(4-(4-methylpiperazin-1-yl)piperidine-1-carbonyl)phenyl)amino)-5-methyl-5H-benzo[e]pyrimido[5,4-b][1,4]diazepin-6(11H)-one]",100,100
COc1cc(C(=O)N2CCC(N3CCN(C)CC3)CC2)ccc1Nc1ncc2c(n1)N1CCc3cccc(c31)C(=O)N2C [Compound 24],,62
COc1cc(C(=O)N2CCC(N3CCN(C)CC3)CC2)ccc1Nc1ncc2c(n1)N(C)c1ccccc1C(=O)N2C [15 (LRRK2-IN-1)],95,100
